# Counter-ions that a name gives are not always drawn.
# Tests used:
# full-length human RORγt = full-length human RORγt (Homo sapiens (Human), UniProt P51449); experiment: RORγt (full-length human) reporter assay, conditions A or B, HEK293T cells; assay type: cell-based; details: for inhibition at 3 µM / inhibition at […] / inhibition at 1 µM / inhibition at 2 µM: HEK-293T, read-out: RORγt (FL) Reporter Assay A or B, % inhibition; for inhibition at 3 µM: 3 μM compound concentration (footnote *); for IC50: RORγt (FL) Reporter Assay A or B, IC50, HEK293T cells; for inhibition at […]: 0.33 μM compound concentration (footnote *****); for inhibition at 1 µM: 1 μM compound concentration (footnote ***); for inhibition at 2 µM: 2 μM compound concentration
# full-length human RORγt, sequence (P51449 other isoform, or with tags, fused parts or gaps): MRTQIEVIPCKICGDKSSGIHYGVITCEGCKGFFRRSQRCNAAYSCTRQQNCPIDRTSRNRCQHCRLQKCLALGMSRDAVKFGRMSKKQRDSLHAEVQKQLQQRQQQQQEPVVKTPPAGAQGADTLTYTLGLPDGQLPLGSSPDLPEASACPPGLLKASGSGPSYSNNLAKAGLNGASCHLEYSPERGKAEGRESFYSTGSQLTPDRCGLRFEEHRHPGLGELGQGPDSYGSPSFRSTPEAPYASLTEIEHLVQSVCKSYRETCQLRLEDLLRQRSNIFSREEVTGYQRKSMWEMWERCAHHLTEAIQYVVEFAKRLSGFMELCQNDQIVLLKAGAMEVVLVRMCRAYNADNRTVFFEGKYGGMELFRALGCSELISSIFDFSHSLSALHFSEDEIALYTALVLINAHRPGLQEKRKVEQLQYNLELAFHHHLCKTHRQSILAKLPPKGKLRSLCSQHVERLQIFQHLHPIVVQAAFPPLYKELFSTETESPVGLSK
# Method in brief: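 After 16–20 h, dual firefly/Renilla luciferase luminescence was read. Firefly signal was normalized to DMSO and saturating reference compound, then to Renilla, and fitted for IC50; % inhibition is versus DMSO.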
# [1] = molecular target: human RORγt ligand binding domain (RORγt LBD) (Homo sapiens (Human), UniProt P51449); experiment: RORγt ThermoFluor® assay (thermal shift binding); details: ThermoFluor® Assay, Kd
# human RORγt ligand binding domain (RORγt LBD), sequence (P51449 other isoform, or with tags, fused parts or gaps): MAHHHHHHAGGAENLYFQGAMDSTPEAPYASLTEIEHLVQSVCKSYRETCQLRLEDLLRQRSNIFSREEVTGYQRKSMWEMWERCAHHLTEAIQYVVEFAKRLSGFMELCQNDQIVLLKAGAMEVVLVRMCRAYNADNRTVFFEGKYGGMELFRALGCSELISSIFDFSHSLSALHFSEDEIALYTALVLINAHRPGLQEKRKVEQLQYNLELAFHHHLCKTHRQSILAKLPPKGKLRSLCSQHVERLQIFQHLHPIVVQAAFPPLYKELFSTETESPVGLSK
# Method in brief: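 Thermal shift with 0.065 mg/mL RORγt LBD and 60 μM 1,8-ANS in 100 mM Hepes pH 7.0, 10 mM NaCl, 2.5 mM GSH, 0.002% Tween-20.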
inhibition at 3 µM (full-length human RORγt),IC50 (full-length human RORγt),Kd [1],inhibition at […] (full-length human RORγt),inhibition at 1 µM (full-length human RORγt),inhibition at 2 µM (full-length human RORγt),Structure (SMILES)
89%,16 nM,32 nM,–,–,–,"CCn1nc(C(=O)NC[C@H]2CC[C@H](S(C)(=O)=O)CC2)c(Cl)c1-c1ccc(C2(O)CCC(C(F)(F)F)CC2)cc1OC(F)F (single isomer, unassigned) [Example 115, 4-Chloro-5-(2-(difluoromethoxy)-4-((1r*,4r*)-1-hydroxy-4-(trifluoromethyl)cyclohexyl)phenyl)-1-ethyl-N-(((1r,4r)-4-(methylsulfonyl)cyclohexyl)methyl)-1H-pyrazole-3-carboxamide]"
–,11 nM,0.46 nM,83%,–,–,"CCn1nc(C(=O)NC[C@H]2CC[C@H](S(C)(=O)=O)CC2)c(Cl)c1-c1ccc(C[C@@H](C)C(F)(F)F)cc1OC(F)F (single isomer, unassigned) [Example 135, 4-Chloro-5-(2-(difluoromethoxy)-4-((R*)-3,3,3-trifluoro-2-methylpropyl)phenyl)-1-ethyl-N-(((1r,4R)-4-(methylsulfonyl)cyclohexyl)methyl)-1H-pyrazole-3-carboxamide]"
–,3.6 nM,1.1 nM,89%,–,–,"CCn1nc(C(=O)NC[C@]2(O)CC[C@@H](S(C)(=O)=O)CC2)c(Cl)c1-c1ccc(C[C@@H](C)C(F)(F)F)cc1OC(F)F (single isomer, unassigned) [Example 136, 4-Chloro-5-(2-(difluoromethoxy)-4-((R*)-3,3,3-trifluoro-2-methylpropyl)phenyl)-1-ethyl-N-(((1s,4S)-1-hydroxy-4-(methylsulfonyl)cyclohexyl)methyl)-1H-pyrazole-3-carboxamide]"
–,2.7 nM,0.58 nM,–,122%,–,"CCn1nc(C(=O)NC[C@H]2CC[C@H](S(N)(=O)=O)CC2)c(Cl)c1-c1ccc(C[C@@H](C)C(F)(F)F)cc1OC(F)F (single isomer, unassigned) [Example 139, 4-Chloro-5-(2-(difluoromethoxy)-4-((R*)-3,3,3-trifluoro-2-methylpropyl)phenyl)-1-ethyl-N-(((1r,4R)-4-sulfamoylcyclohexyl)methyl)-1H-pyrazole-3-carboxamide]"
–,37 nM,7.9 nM,72%,–,–,"C[C@H](Cc1ccc(-c2c(Cl)c(C(=O)NC[C@]3(O)CC[C@@H](S(C)(=O)=O)CC3)nn2C)c(OC(F)F)c1)C(F)(F)F (single isomer, unassigned) [Example 152, 4-Chloro-5-(2-(difluoromethoxy)-4-((R*)-3,3,3-trifluoro-2-methylpropyl)phenyl)-N-(((1s,4S)-1-hydroxy-4-(methylsulfonyl)cyclohexyl)methyl)-1-methyl-1H-pyrazole-3-carboxamide]"
–,79 nM,16 nM,–,–,69%,"CCn1nc(C(=O)NC[C@]2(O)CC[C@@H](S(C)(=O)=O)CC2)c(Cl)c1-c1c(F)cc(C[C@H](C)C(F)(F)F)cc1F (single isomer, unassigned) [Example 198, 4-Chloro-5-(2,6-difluoro-4-((S*)-3,3,3-trifluoro-2-methylpropyl)phenyl)-1-ethyl-N-(((1s,4R)-1-hydroxy-4-(methylsulfonyl)cyclohexyl)methyl)-1H-pyrazole-3-carboxamide]"
–,58 nM,14 nM,–,–,75%,"CCn1nc(C(=O)NC[C@]2(O)CC[C@@H](S(C)(=O)=O)CC2)c(Cl)c1-c1c(F)cc(C[C@@H](C)C(F)(F)F)cc1F (single isomer, unassigned) [Example 199, 4-Chloro-5-(2,6-difluoro-4-((R*)-3,3,3-trifluoro-2-methylpropyl)phenyl)-1-ethyl-N-(((1s,4S)-1-hydroxy-4-(methylsulfonyl)cyclohexyl)methyl)-1H-pyrazole-3-carboxamide]"
103%,120 nM,1.7 nM,–,–,–,"CCn1nc(C(=O)NC[C@]2(O)CC[C@@H](S(C)(=O)=O)C[C@H]2N)c(Cl)c1-c1ccc(CC(C)(C)C(F)(F)F)cc1OC(F)F (stereo in doubt) [Example 5, N-(((1RS,2RS,4RS)-2-Amino-1-hydroxy-4-(methylsulfonyl)cyclohexyl)methyl)-4-chloro-5-(2-(difluoromethoxy)-4-(3,3,3-trifluoro-2,2-dimethylpropyl)phenyl)-1-ethyl-1H-pyrazole-3-carboxamide Hydrobromide]"
–,68 nM,2.1 nM,–,103%,–,"CCn1nc(C(=O)NC[C@@]2(O)CC[C@H](S(C)(=O)=O)C[C@@H]2N)c(Cl)c1-c1ccc(CC(C)(C)C(F)(F)F)cc1OC(F)F (stereo in doubt) [Example 7, N-(((1S*,2S*,4S*)-2-Amino-1-hydroxy-4-(methylsulfonyl)cyclohexyl)methyl)-4-chloro-5-(2-(difluoromethoxy)-4-(3,3,3-trifluoro-2,2-dimethylpropyl)phenyl)-1-ethyl-1H-pyrazole-3-carboxamide hydrobromide]"
92%,13 nM,0.73 nM,–,–,–,"CCn1nc(C(=O)NC[C@H]2CC[C@H](S(C)(=O)=O)CN2)c(Cl)c1-c1ccc(CC(C)(C)C(F)(F)F)cc1OC(F)F (stereo in doubt) [Example 8, 4-Chloro-5-(2-(difluoromethoxy)-4-(3,3,3-trifluoro-2,2-dimethylpropyl)phenyl)-1-ethyl-N-(((2RS,5SR)-5-(methylsulfonyl)piperidin-2-yl)methyl)-1H-pyrazole-3-carboxamide Hydrobromide]"
–,9.1 nM,1.6 nM,–,104%,–,"CCn1nc(C(=O)NC[C@H]2CC[C@H](S(C)(=O)=O)CN2)c(Cl)c1-c1ccc(CC(C)(C)C(F)(F)F)cc1OC(F)F (stereo in doubt) [Example 9, 4-Chloro-5-(2-(difluoromethoxy)-4-(3,3,3-trifluoro-2,2-dimethylpropyl)phenyl)-1-ethyl-N-(((2R*,5S*)-5-(methylsulfonyl)piperidin-2-yl)methyl)-1H-pyrazole-3-carboxamide hydrobromide]"
103%,25 nM,2.6 nM,–,–,–,"CCn1nc(C(=O)NC[C@@H]2CC[C@@H](S(C)(=O)=O)CN2)c(Cl)c1-c1ccc(CC(C)(C)C(F)(F)F)cc1OC(F)F (stereo in doubt) [Example 10, 4-Chloro-5-(2-(difluoromethoxy)-4-(3,3,3-trifluoro-2,2-dimethylpropyl)phenyl)-1-ethyl-N-(((2S*,5R*)-5-(methylsulfonyl)piperidin-2-yl)methyl)-1H-pyrazole-3-carboxamide hydrobromide]"
100%,190 nM,35 nM,–,–,–,"CCn1nc(C(=O)NC[C@H]2CC[C@@H](S(C)(=O)=O)CN2)c(Cl)c1-c1ccc(CC(C)(C)C(F)(F)F)cc1OC(F)F (stereo in doubt) [Example 11, 4-Chloro-5-(2-(difluoromethoxy)-4-(3,3,3-trifluoro-2,2-dimethylpropyl)phenyl)-1-ethyl-N-(((2RS,5RS)-5-(methylsulfonyl)piperidin-2-yl)methyl)-1H-pyrazole-3-carboxamide Hydrobromide]"
92%,91 nM,74 nM,–,–,–,"CCn1nc(C(=O)NC[C@@H]2CC[C@H](S(C)(=O)=O)CN2)c(Cl)c1-c1ccc(CC(C)(C)C(F)(F)F)cc1OC(F)F (stereo in doubt) [Example 12, 4-Chloro-5-(2-(difluoromethoxy)-4-(3,3,3-trifluoro-2,2-dimethylpropyl)phenyl)-1-ethyl-N-(((2S*,5S*)-5-(methylsulfonyl)piperidin-2-yl)methyl)-1H-pyrazole-3-carboxamide]"
90%,190 nM,110 nM,–,–,–,"CCn1nc(C(=O)NC[C@H]2CC[C@@H](S(C)(=O)=O)CN2)c(Cl)c1-c1ccc(CC(C)(C)C(F)(F)F)cc1OC(F)F (stereo in doubt) [Example 13, 4-Chloro-5-(2-(difluoromethoxy)-4-(3,3,3-trifluoro-2,2-dimethylpropyl)phenyl)-1-ethyl-N-(((2R*,5R*)-5-(methylsulfonyl)piperidin-2-yl)methyl)-1H-pyrazole-3-carboxamide]"
103%,26 nM,3.5 nM,–,–,–,"CCn1nc(C(=O)NC[C@@]2(O)CC[C@H](S(C)(=O)=O)C[C@@H]2O)c(Cl)c1-c1ccc(C[C@H](C)C(F)(F)F)cc1OC(F)F (stereo in doubt) [Example 52, 4-Chloro-5-(2-(difluoromethoxy)-4-((S*)-3,3,3-trifluoro-2-methylpropyl)phenyl)-N-(((1S*,2S*,4S*)-1,2-dihydroxy-4-(methylsulfonyl)cyclohexyl)methyl)-1-ethyl-1H-pyrazole-3-carboxamide]"
95%,35 nM,5.7 nM,–,–,–,"CCn1nc(C(=O)NC[C@@]2(O)CC[C@H](S(C)(=O)=O)C[C@@H]2O)c(C)c1-c1ccc(C[C@H](C)C(F)(F)F)cc1OC(F)F (stereo in doubt) [Example 57, 5-(2-(Difluoromethoxy)-4-((S*)-3,3,3-trifluoro-2-methylpropyl)phenyl)-N-(((1S*,2S*,4S*)-1,2-dihydroxy-4-(methylsulfonyl)cyclohexyl)methyl)-1-ethyl-4-methyl-1H-pyrazole-3-carboxamide]"
